ChEMBL document CHEMBL1201862, “PubChem BioAssay data set” (2004)
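Cultured in 96-well plates, cells were exposed to test compound for 48 hours across five concentrations. GI50 = concentration required for 50% inhibition of growth.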 Active and inactive are the calls of the source. Rule as the data show it: active = GI50 up to about 1.1 µM and inactive = higher.

Legend:
Test in all cases: inhibition of tumour cell growth, NCI panel, 48 h
[1] = test system: ACHN
[2] = test system: OVCAR-4
[3] = test system: SK-MEL-5
[4] = test system: KM12
[5] = test system: OVCAR-5
[6] = test system: MDA-MB-231
[7] = test system: A498
[8] = test system: UACC-257
[9] = test system: K562
[10] = test system: SF-268
[11] = test system: SNB-19
[12] = test system: LOX IMVI
[13] = test system: SF-539
[14] = test system: HOP-62
[15] = test system: NCI-H522
[16] = test system: OVCAR-3
[17] = test system: BT-549
[18] = test system: RXF 393
[19] = test system: SK-MEL-28

Measured: GI50

CN1CCN(CC(=O)Nc2cccc3ccccc23)CC1
inactive: [1] > 100 µM | [2] > 100 µM | [3] > 100 µM | [4] > 100 µM | [5] > 100 µM | [6] > 100 µM | [7] > 100 µM | [8] > 100 µM | [9] > 100 µM | [10] > 100 µM | [11] > 100 µM | [12] > 100 µM | [13] > 100 µM | [14] > 100 µM | [15] > 100 µM | [16] > 100 µM | [17] > 100 µM | [18] > 100 µM | [19] > 100 µM

COc1cc([C@@H]2c3cc4c(cc3[C@@H](c3c(O)cc(O)c5c3O[C@H](c3ccc(O)c(O)c3)[C@H](OC(=O)c3cc(O)c(O)c(O)c3)C5)[C@H]3COC(=O)[C@H]23)OCO4)cc(OC)c1OC
inactive: [1] 1.33 µM | [2] 16.6 µM | [3] 7.38 µM | [4] 3.88 µM | [5] 53.3 µM | [6] 4.52 µM | [7] 3.74 µM | [8] 43.1 µM | [9] 4.78 µM | [10] 5.79 µM | [11] 52.7 µM | [12] 5.77 µM | [13] 4.22 µM | [14] 11.9 µM | [15] 3.92 µM | [16] 4.01 µM | [17] > 34.4 µM | [18] 4.67 µM | [19] > 50.7 µM

Nc1c(Cl)ncnc1N[C@@H]1C[C@H]1CO
inactive: [1] > 100 µM | [2] > 100 µM | [3] > 100 µM | [4] > 100 µM | [5] > 100 µM | [6] > 100 µM | [7] > 100 µM | [8] > 100 µM | [9] > 100 µM | [10] > 100 µM | [11] > 100 µM | [12] > 100 µM | [13] > 100 µM | [14] > 100 µM | [15] > 100 µM | [16] > 100 µM | [17] > 100 µM | [18] > 100 µM | [19] > 100 µM

COc1cc(-c2c3c([nH]c(=O)c2C#N)-c2cc([N+](=O)[O-])ccc2CCC3)cc(OC)c1OC
inactive: [1] 21 µM | [2] 21.5 µM | [3] 12.9 µM | [4] 20.2 µM | [5] 23.7 µM | [6] 19.9 µM | [7] 14.2 µM | [8] 26.9 µM | [9] 18.9 µM | [10] 24.2 µM | [11] 30.8 µM | [12] 15.1 µM | [13] 24.3 µM | [14] 19.9 µM | [15] 15.6 µM | [16] 15.5 µM | [17] 17.5 µM | [18] 22.1 µM | [19] 43.5 µM

Nc1cc(S(=O)(=O)O)cc2ccc(S(=O)(=O)O)cc12
inactive: [1] > 100 µM | [2] > 100 µM | [3] > 100 µM | [4] > 100 µM | [5] > 100 µM | [6] > 100 µM | [7] > 100 µM | [8] > 100 µM | [9] > 100 µM | [10] > 100 µM | [11] > 100 µM | [12] > 100 µM | [13] > 100 µM | [14] > 100 µM | [15] > 100 µM | [16] > 100 µM | [17] > 100 µM | [18] > 100 µM | [19] > 100 µM

CN(C)Cc1cc(C(C)(C)C)cc(CNC2CCCCC2)c1O
inactive: [1] 42.9 µM | [2] 35.6 µM | [3] 15.5 µM | [4] 30.4 µM | [5] 19.2 µM | [6] 42.3 µM | [7] 27.9 µM | [8] 26.2 µM | [9] 22.1 µM | [10] 18.7 µM | [11] > 100 µM | [12] 22.1 µM | [13] 17.7 µM | [14] 41.2 µM | [15] 24.2 µM | [16] 29.9 µM | [17] 76.7 µM | [18] 29.2 µM | [19] 33.3 µM

C=C1C(=O)OC2/C=C(\C)C(O)CC(O)C(C)(O)CC(OC(=O)/C(C)=C/C)C12 (stereo not drawn)
inactive: [1] 39.2 µM | [2] 45.2 µM | [3] 36.7 µM | [4] 29.6 µM | [5] > 73.8 µM | [6] 49.5 µM | [7] 42.2 µM | [8] 83.8 µM | [9] 32.6 µM | [10] 42.3 µM | [11] 66.5 µM | [12] 32.3 µM | [13] 42.4 µM | [14] > 100 µM | [15] 28.1 µM | [16] 44.2 µM | [17] 26.1 µM | [18] > 60.1 µM | [19] 47.9 µM

COc1cc2cc3c4c(cc(OC)c(OC)c4c2cc1OC)CCN3C
inactive: [1] 3.66 µM | [2] 2.51 µM | [3] 6.03 µM | [4] 11 µM | [5] 21 µM | [6] 7.73 µM | [7] 6.84 µM | [8] 9.12 µM | [9] 6.19 µM | [10] 8.53 µM | [11] 12.5 µM | [12] 5.25 µM | [13] 9.25 µM | [14] 11.9 µM | [15] 2.58 µM | [16] 8.05 µM | [17] 6.46 µM | [18] 1.83 µM | [19] 18.1 µM

C/C(=C\CO)CC[C@@H]1[C@@]2(C)CCCC(C)(C)[C@@H]2CC[C@@]1(C)O
inactive: [1] 34.2 µM | [2] 17.3 µM | [3] 17.9 µM | [4] 19.2 µM | [5] 23.1 µM | [6] 17.3 µM | [7] 17 µM | [8] 19.5 µM | [9] 16.5 µM | [10] 17.7 µM | [11] 21.3 µM | [12] 16.1 µM | [13] 18.1 µM | [15] 16.7 µM | [16] 13.9 µM | [17] 18.3 µM | [18] 17.6 µM | [19] 22.3 µM

CN(C)/C=N\c1cccc2cnccc12
inactive: [1] > 100 µM | [2] > 100 µM | [3] > 100 µM | [5] > 100 µM | [6] > 100 µM | [7] > 100 µM | [8] > 100 µM | [9] > 100 µM | [10] > 100 µM | [11] > 100 µM | [12] > 100 µM | [13] > 100 µM | [14] > 100 µM | [15] > 100 µM | [16] 43.2 µM | [17] > 100 µM | [18] > 100 µM | [19] > 100 µM
